Test results reported in patent publication US20230416331A1, “PEPTIDE CONJUGATES OF PEPTIDIC TUBULIN INHIBITORS AS THERAPEUTICS” (priority 2021, published 2023).
Where a SMILES comes first, the peptide text is derived from it. [ ]: non-standard residue; d: D form. The star is where a group is joined. Dolaproine = CO[C@@H]([C@@H]1CCCN1)[C@@H](C)C(=O)O; Dil = CC[C@H](C)[C@H](NC)[C@@H](CC(=O)O)OC; X1 = C[C@@H](N*)[C@@H](O)c1ccccc1; NMeV = CN[C@H](C(=O)O)C(C)C

Experiments:
[1] = test system: HCT116 colorectal cancer flank tumors; assay: Efficacy of Compound 5 in a HCT116 colorectal xenograft model (Example N); type: in vivo, nude mice; conditions: 1, 5 and 10 mg/kg IP QDx4
Description: Mice were administered intraperitoneal (IP) doses of vehicle, 1, 5, or 10 mg/kg Compound 5.

HCT116 cells = assay: In vitro cell cycle arrest functional assay (propidium iodide, flow cytometry); type: cell-based; conditions: Homo sapiens, HCT-116, 24 h incubation, read-out: IC50 of dose responsive accumulation in G2/M
Description: Cell Incubation with MMAE and Compound 2 and Staining with Propidium Iodide
HCT116 cells were seeded in 6-well tissue culture plates at 500,000 cells per well in 2 mL of DMEM and incubated overnight in a 37° C., 5% CO2 incubator. 200 μL of dilutions of MMAE and Compound 2 which were made at 10× concentrations in DMEM+4% DMSO were added to appropriate wells of the 6-well plates and plates were incubated for 24 hours. After exposure of HCT116 cells to either MMAE or Compound 2, cells were harvested for propidium iodide staining and flow cytometry. Media was collected from each well and transferred into conical 15 mL centrifuge tubes to collect nonadherent cells. PBS (1 mL) was added to wash wells and was then transferred to the 15 mL tubes. Tryp-LE (1 mL) was added to each well and plates were incubated for 5 minutes in a 37° C., 5% CO2 incubator until the cells lifted off the well surface. A solution of DMEM+10% fetal bovine serum (1 mL) was added to each well. Wells were triturated and cells transferred to tubes. […] Cell counts and viability for each sample was assessed by trypan blue exclusion on a Bio-Rad TC20 cell counter. […]
An aliquot (1 mL) of each cell suspension was transferred into a deep-well polypropylene plate. […] Propidium iodide-stained cells were analyzed using a BD Acuri flow cytometer.

[2] = Tissue pharmacokinetics of Compound 2 in a mouse model (MMAE in tumor, muscle, bone marrow); type: in vivo, athymic nude mice bearing HCT116 tumors; conditions: single IP 0.5 mg/kg MMAE or 3 mg/kg Compound 2; 4, 24, 48 h; LCMS
Description: When xenografts reached a minimal volume of 300 mm^3, mice were administered a single intraperitoneal injection of 0.5 mg/kg MMAE or 3 mg/kg Compound 2 prepared in a vehicle of 5% mannitol in citrate. Tumor, quadriceps muscle and bone marrow samples were collected from fed, anesthetized mice at 4, 24 and 48 hours after compound administration. MMAE concentrations in tissues were determined via LCMS.
A 75 μL volume of acetonitrile:formic acid (1000:1, v:v) containing internal standard (MMAE-D8) to the wells of a 96-well protein precipitation plate resting on top of a 0.700 mL 96-well LoBind polypropylene plate. Double blank and carryover sample wells received 75 μL of acetonitrile:formic acid (1000:1, v:v) without internal standard. A 25 μL volume of each matrix sample was added to the plate wells containing internal standard. Fortified samples were vortexed at 700 rpm for 1 minute and centrifuged at 3000 rpm for 2 minutes at 4° C. The protein precipitation plate was discarded. A 50 μL volume of mobile phase A (acetonitrile:water:200 mM ammonium formate (90:5:5, v:v:v)) was added to the 96-well polypropylene collection plate which was covered with a silicone cap mat. Final samples were vortexed at 700 rpm for 2 minutes and analysis was accomplished by injecting a 2 μL sample onto an LC-MS/MS system. […]

[3] = test system: HCT116 HER2 negative colorectal flank tumors; assay: Efficacy in a HCT116 colorectal xenograft model (Example E); type: in vivo, nude mice; conditions: IP QDx2
Description: Mice were administered intraperitoneal (IP) doses of vehicle, 0.25 mg/kg MMAE or 40 mg/kg Compound 1 (equivalent 7 mg/kg unconjugated MMAE).

Row | SMILES | efficacy (mean tumor volume) [1] | IC50 (HCT116 cells) [nM] | distribution of unconjugated MMAE to tumor, muscle and bone marrow [2] | animals removed from the study by day ([3]; 0.25 mg/kg MMAE) [days] | change in body weight ([3]; 0.25 mg/kg MMAE or 40 mg/kg Compound 1 (7 mg/kg MMAE equivalent))
1 | CC[C@H](C)[C@@H]([C@@H](CC(=O)N1CCC[C@H]1[C@H](OC)[C@@H](C)C(=O)N[C@H](C)[C@@H](O)c1ccccc1)OC)N(C)C(=O)[C@@H](NC(=O)[C@H](C(C)C)N(C)C(=O)OCc1ccc(NC(=O)O[C@H]2CCCC[C@@H]2SSC[C@H](NC(=O)[C@H](Cc2c[nH]c3ccccc23)NC(=O)[C@H](CC(C)C)NC(=O)[C@H](CC(C)C)NC(=O)[C@H](CC(=O)O)NC(=O)[C@H](CC(C)C)NC(=O)[C@H](CC(C)C)NC(=O)[C@H](CC(C)C)NC(=O)[C@@H](NC(=O)[C@H](CC(=O)O)NC(=O)[C@@H](NC(=O)[C@@H]2CCCN2C(=O)[C@H](Cc2ccccc2)NC(=O)[C@H](CC(C)C)NC(=O)[C@H](CC(C)C)NC(=O)[C@H](CC(=O)O)NC(=O)[C@H](CC(C)C)NC(=O)[C@H](Cc2ccc(O)cc2)NC(=O)[C@H](C)NC(=O)[C@H](CCCNC(=N)N)NC(=O)[C@H](Cc2c[nH]c3ccccc23)NC(=O)[C@@H]2CCCN2C(=O)[C@H](CC(N)=O)NC(=O)[C@H](CCC(N)=O)NC(=O)[C@H](CC(=O)O)NC(=O)[C@H](CC(=O)O)NC(=O)[C@H](C)N)[C@@H](C)O)[C@@H](C)O)C(=O)NCC(N)=O)cc1)C(C)C [Compound 5] | dose responsive efficacy | – | – | – | –
2 | CC[C@H](C)[C@@H]([C@@H](CC(=O)N1CCC[C@H]1[C@H](OC)[C@@H](C)C(=O)N[C@H](C)[C@@H](O)c1ccccc1)OC)N(C)C(=O)[C@@H](NC(=O)[C@@H](NC)C(C)C)C(C)C [MMAE, monomethyl auristatin E] (H-[NMeV]V[Dil][Dolaproine]-X1) | – | 2.6 | indiscriminate distribution of MMAE across all tissues | ≤ 6 | rapid decline in body weight
